From patent US20020137929A1, “1 - (3-heterocyclylphenyl) isothiourea, -isourea, -guanidine and -amidine herbicidal agents” (Intellectual Property Department, BASF Aktiengesellschaft, priority 1998, published 2002)

Tests used:
SETVI (Foxtail, Green) = test: Postemergence herbicidal evaluation; type: in vivo, Setaria viridis; details: postemergence
Outline: (§1)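 Two-week seedlings sprayed postemergence at 40 psi; formulation: 1:1 acetone/water, 0.5% TWEEN 20; application ≈0.0156–0.500 kg/ha. Greenhouse grow-out, then 0–9 visual scoring at 4–5 weeks.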

[1] = tested on: ECHORC (Watergrass (Calif.)); test: Preemergence weed control under flooded paddy conditions; type: in vivo, Echinochloa oryzoides; details: rated 3-4 weeks after treatment
Outline: (§2)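 Seeds or propagules sown in silt loam kept flooded 1.5-3 cm; compounds in 50/50 acetone/water pipetted into flood water at about 0.0313 to 0.500 kg/ha. Greenhouse; visual 0-9 rating versus untreated control 3-4 weeks after treatment.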

GALAP (Galium) = test: Postemergence herbicidal evaluation; type: in vivo, Galium aparine; details: postemergence
Outline: as §1

ORYSAT (Rice, Tebonnet) = test: Postemergence herbicidal evaluation; type: in vivo, Oryza sativa, (L.) Tebonnet; details: postemergence
Outline: as §1

MOOVA (Monochoria) = test: Preemergence weed control under flooded paddy conditions; type: in vivo, Monochoria vaginalis; details: rated 3-4 weeks after treatment
Outline: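 Greenhouse paddy assay. Acetone/water (50/50 v/v) solutions dosed into flood water, equivalent to about 0.0313 to 0.500 kg/ha active ingredient, over seeds planted 0.5 cm deep in silt loam. Score: 0-9 visual, based on stand, vigor, malformation, size and chlorosis, 3 to 4 weeks after treatment.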

ZEAMX (Corn, Field) = test: Preemergence herbicidal evaluation; type: in vivo, Zea mays; details: rated 4-5 weeks after treatment
Outline: (§3)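 Preemergence soil application of compound, sprayed in aqueous acetone at rates equivalent to about 0.0156 to 0.500 kg per hectare onto freshly sown cups. Plant response was judged by eye on a 0-9 scale four to five weeks later.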

ECHCG (Barnyardgrass) = test: Postemergence herbicidal evaluation; type: in vivo, Echinochloa crus-galli; details: postemergence
Outline: as §1

ABUTH (Velvetleaf) = test: Postemergence herbicidal evaluation; type: in vivo, Abutilon theophrasti; details: postemergence
Outline: as §1

[2] = tested on: IPOHE (Morningglory, Ivyleaf); test: Preemergence herbicidal evaluation; type: in vivo, Ipomoea hederacea; details: rated 4-5 weeks after treatment
Outline: as §3

[3] = tested on: TRZAWR (Wheat, Winter, cv Riband); test: Preemergence herbicidal evaluation; type: in vivo, Triticum aestivum; details: rated 4-5 weeks after treatment
Outline: as §3

CYPIR (Rice Flatsedge) = test: Preemergence weed control under flooded paddy conditions; type: in vivo, Cyperus iria; details: rated 3-4 weeks after treatment
Outline: as §2

Cn1c(C(F)(F)F)cc(=O)n(-c2cc(N=C3SCC(=O)N3CC(F)(F)F)c(Cl)cc2F)c1=O [Compound 163, 3-{4-Chloro-2-fluoro-5-{[4-oxo-3-(2,2,2-trifluoroethyl)-2-thiazolidinylidene]amino}phenyl}-1-methyl-6-(trifluoromethyl)-2,4(1H,3H)-pyrimidinedione]
herbicidal rating SETVI (SETVI (Foxtail, Green); rate 0.0156 kg/ha): 0.0
herbicidal rating SETVI (SETVI (Foxtail, Green); rate 0.0625 kg/ha): 3.0
herbicidal effect rating, ECHORC ([1]; 0.0313 kg/ha): 9.0
herbicidal effect rating, ECHORC ([1]; 0.0625 kg/ha): 9.0
herbicidal effect rating, ECHORC ([1]; 0.1250 kg/ha): 9.0
herbicidal effect rating, ECHORC ([1]; 0.2500 kg/ha): 9.0
herbicidal rating GALAP (GALAP (Galium); rate 0.0156 kg/ha): 0.0
herbicidal rating GALAP (GALAP (Galium); rate 0.0313 kg/ha): 3.0
herbicidal rating GALAP (GALAP (Galium); rate 0.0625 kg/ha): 5.0
herbicidal rating ORYSAT (ORYSAT (Rice, Tebonnet); rate 0.0156 kg/ha): 1.0
herbicidal rating ORYSAT (ORYSAT (Rice, Tebonnet); rate 0.0313 kg/ha): 1.5
herbicidal rating ORYSAT (ORYSAT (Rice, Tebonnet); rate 0.0625 kg/ha): 2.0
herbicidal effect rating, MOOVA (MOOVA (Monochoria); 0.0313 kg/ha): 9.0
herbicidal effect rating, MOOVA (MOOVA (Monochoria); 0.0625 kg/ha): 9.0
herbicidal effect rating, MOOVA (MOOVA (Monochoria); 0.1250 kg/ha): 9.0
herbicidal effect rating, MOOVA (MOOVA (Monochoria); 0.2500 kg/ha): 9.0
Preemergence herbicidal rating ZEAMX (ZEAMX (Corn, Field); 0.0156 kg/ha): 5.0
Preemergence herbicidal rating ZEAMX (ZEAMX (Corn, Field); 0.0313 kg/ha): 5.0
Preemergence herbicidal rating ZEAMX (ZEAMX (Corn, Field); 0.0625 kg/ha): 7.0
Preemergence herbicidal rating ZEAMX (ZEAMX (Corn, Field); 0.1250 kg/ha): 7.0
Preemergence herbicidal rating ZEAMX (ZEAMX (Corn, Field); 0.2500 kg/ha): 8.0
herbicidal rating ECHCG (ECHCG (Barnyardgrass); rate 0.0156 kg/ha): 0.0
herbicidal rating ECHCG (ECHCG (Barnyardgrass); rate 0.0313 kg/ha): 0.0
herbicidal rating ECHCG (ECHCG (Barnyardgrass); rate 0.0625 kg/ha): 1.0
herbicidal rating ABUTH (ABUTH (Velvetleaf); rate 0.0156 kg/ha): 9.0
herbicidal rating ABUTH (ABUTH (Velvetleaf); rate 0.0313 kg/ha): 9.0
herbicidal rating ABUTH (ABUTH (Velvetleaf); rate 0.0625 kg/ha): 9.0
Preemergence herbicidal rating IPOHE ([2]; 0.0156 kg/ha): 0.0
Preemergence herbicidal rating IPOHE ([2]; 0.0313 kg/ha): 0.0
Preemergence herbicidal rating IPOHE ([2]; 0.0625 kg/ha): 3.0
Preemergence herbicidal rating IPOHE ([2]; 0.1250 kg/ha): 9.0
Preemergence herbicidal rating IPOHE ([2]; 0.2500 kg/ha): 9.0
Preemergence herbicidal rating TRZAWR ([3]; 0.0156 kg/ha): 0.0
Preemergence herbicidal rating TRZAWR ([3]; 0.0313 kg/ha): 0.0
Preemergence herbicidal rating TRZAWR ([3]; 0.0625 kg/ha): 3.0
Preemergence herbicidal rating TRZAWR ([3]; 0.1250 kg/ha): 7.0
Preemergence herbicidal rating TRZAWR ([3]; 0.2500 kg/ha): 7.0
herbicidal effect rating, CYPIR (CYPIR (Rice Flatsedge); 0.0313 kg/ha): 6.0
herbicidal effect rating, CYPIR (CYPIR (Rice Flatsedge); 0.0625 kg/ha): 7.0
herbicidal effect rating, CYPIR (CYPIR (Rice Flatsedge); 0.1250 kg/ha): 9.0
herbicidal effect rating, CYPIR (CYPIR (Rice Flatsedge); 0.2500 kg/ha): 9.0

C#CC(C)N1C(=O)CSC1=Nc1cc(-n2c(=O)cc(C(F)(F)F)n(C)c2=O)c(F)cc1Cl (stereo not drawn) [Compound 165, 3-{4-Chloro-2-fluoro-5-{[3-(1-methyl-2-propynyl)-4-oxo-2-thiazolidinylidene]amino}phenyl}-1-methyl-6-(trifluoromethyl)-2,4(1H,3H)-pyrimidinedione]
herbicidal rating SETVI (SETVI (Foxtail, Green); rate 0.0156 kg/ha): 2.0
herbicidal rating SETVI (SETVI (Foxtail, Green); rate 0.0313 kg/ha): 6.0
herbicidal rating SETVI (SETVI (Foxtail, Green); rate 0.0625 kg/ha): 9.0
herbicidal rating SETVI (SETVI (Foxtail, Green); rate 0.1250 kg/ha): 7.0
herbicidal effect rating, ECHORC ([1]; 0.0313 kg/ha): 9.0
herbicidal effect rating, ECHORC ([1]; 0.0625 kg/ha): 9.0
herbicidal effect rating, ECHORC ([1]; 0.1250 kg/ha): 9.0
herbicidal effect rating, ECHORC ([1]; 0.2500 kg/ha): 9.0
herbicidal rating GALAP (GALAP (Galium); rate 0.0156 kg/ha): 0.0
herbicidal rating GALAP (GALAP (Galium); rate 0.0313 kg/ha): 1.0
herbicidal rating GALAP (GALAP (Galium); rate 0.0625 kg/ha): 4.0
herbicidal rating GALAP (GALAP (Galium); rate 0.1250 kg/ha): 5.0
herbicidal rating ORYSAT (ORYSAT (Rice, Tebonnet); rate 0.0156 kg/ha): 2.0
herbicidal rating ORYSAT (ORYSAT (Rice, Tebonnet); rate 0.0313 kg/ha): 1.5
herbicidal rating ORYSAT (ORYSAT (Rice, Tebonnet); rate 0.0625 kg/ha): 3.0
herbicidal rating ORYSAT (ORYSAT (Rice, Tebonnet); rate 0.1250 kg/ha): 4.0
herbicidal effect rating, MOOVA (MOOVA (Monochoria); 0.0313 kg/ha): 9.0
herbicidal effect rating, MOOVA (MOOVA (Monochoria); 0.0625 kg/ha): 9.0
herbicidal effect rating, MOOVA (MOOVA (Monochoria); 0.1250 kg/ha): 9.0
herbicidal effect rating, MOOVA (MOOVA (Monochoria); 0.2500 kg/ha): 9.0
Preemergence herbicidal rating ZEAMX (ZEAMX (Corn, Field); 0.0156 kg/ha): 0.0
Preemergence herbicidal rating ZEAMX (ZEAMX (Corn, Field); 0.0313 kg/ha): 0.0
Preemergence herbicidal rating ZEAMX (ZEAMX (Corn, Field); 0.0625 kg/ha): 1.0
Preemergence herbicidal rating ZEAMX (ZEAMX (Corn, Field); 0.1250 kg/ha): 1.0
Preemergence herbicidal rating ZEAMX (ZEAMX (Corn, Field); 0.2500 kg/ha): 4.0
Preemergence herbicidal rating ZEAMX (ZEAMX (Corn, Field); 0.5000 kg/ha): 7.0
herbicidal rating ECHCG (ECHCG (Barnyardgrass); rate 0.0156 kg/ha): 2.0
herbicidal rating ECHCG (ECHCG (Barnyardgrass); rate 0.0313 kg/ha): 4.0
herbicidal rating ECHCG (ECHCG (Barnyardgrass); rate 0.0625 kg/ha): 3.0
herbicidal rating ECHCG (ECHCG (Barnyardgrass); rate 0.1250 kg/ha): 5.0
herbicidal rating ABUTH (ABUTH (Velvetleaf); rate 0.0156 kg/ha): 9.0
herbicidal rating ABUTH (ABUTH (Velvetleaf); rate 0.0313 kg/ha): 9.0
herbicidal rating ABUTH (ABUTH (Velvetleaf); rate 0.0625 kg/ha): 9.0
herbicidal rating ABUTH (ABUTH (Velvetleaf); rate 0.1250 kg/ha): 9.0
Preemergence herbicidal rating IPOHE ([2]; 0.0156 kg/ha): 0.0
Preemergence herbicidal rating IPOHE ([2]; 0.0313 kg/ha): 0.0
Preemergence herbicidal rating IPOHE ([2]; 0.1250 kg/ha): 2.0
Preemergence herbicidal rating IPOHE ([2]; 0.2500 kg/ha): 9.0
Preemergence herbicidal rating IPOHE ([2]; 0.5000 kg/ha): 9.0
Preemergence herbicidal rating TRZAWR ([3]; 0.0156 kg/ha): 0.0
Preemergence herbicidal rating TRZAWR ([3]; 0.0313 kg/ha): 0.0
Preemergence herbicidal rating TRZAWR ([3]; 0.0625 kg/ha): 0.0
Preemergence herbicidal rating TRZAWR ([3]; 0.1250 kg/ha): 1.0
Preemergence herbicidal rating TRZAWR ([3]; 0.2500 kg/ha): 2.0
Preemergence herbicidal rating TRZAWR ([3]; 0.5000 kg/ha): 4.0
herbicidal effect rating, CYPIR (CYPIR (Rice Flatsedge); 0.0313 kg/ha): 6.0
herbicidal effect rating, CYPIR (CYPIR (Rice Flatsedge); 0.0625 kg/ha): 7.0
herbicidal effect rating, CYPIR (CYPIR (Rice Flatsedge); 0.1250 kg/ha): 9.0
herbicidal effect rating, CYPIR (CYPIR (Rice Flatsedge); 0.2500 kg/ha): 9.0
